Source: patent publication US9808466B2, “Macrocyclic compounds as protein kinase inhibitors” (Fundación Centro Nacional de Investigaciones Oncologicas …, priority 2011, dated 2017)
Where two headings read alike, the source gives them in different places.

Key:
PI3K (p110α/p85α) = biological target: T1, PI3K (p110α/p85α) (Homo sapiens, UniProt P42336); experiment: PI3K activity assay (ADP Hunter Plus); assay type: biochemical
T1 construct: purchased Carna Biosciences 07CBS-0402A
Procedure: The kinase activity was measured by using the commercial ADP Hunter™ Plus assay available from DiscoveRx (#33-016), which is a homogeneous assay to measure the accumulation of ADP, a universal product of kinase activity. […] Reaction was carried out for 1 hour at 25° C. Reagent A and B were sequentially added to the wells and plates were incubated for 30 min at 37° C. Fluorescence counts were read in a Victor instrument (Perkin Elmer) with the recommended settings (544 and 580 nm as excitation and emission wavelengths, respectively). Values were normalized against the control activity included for each enzyme (i.e., 100% PI3 kinase activity, without compound). These values were plotted against the inhibitor concentration and were fit to a sigmoid dose-response curve by using the Graphad software.

mTOR = biological target: T2, mTOR (Homo sapiens, UniProt P42345); experiment: mTOR assay (LanthaScreen kinase activity assay); assay type: biochemical
T2 construct: purchased Invitrogen PV4754
T2 sequence (P42345 1360-2549 limits assumed): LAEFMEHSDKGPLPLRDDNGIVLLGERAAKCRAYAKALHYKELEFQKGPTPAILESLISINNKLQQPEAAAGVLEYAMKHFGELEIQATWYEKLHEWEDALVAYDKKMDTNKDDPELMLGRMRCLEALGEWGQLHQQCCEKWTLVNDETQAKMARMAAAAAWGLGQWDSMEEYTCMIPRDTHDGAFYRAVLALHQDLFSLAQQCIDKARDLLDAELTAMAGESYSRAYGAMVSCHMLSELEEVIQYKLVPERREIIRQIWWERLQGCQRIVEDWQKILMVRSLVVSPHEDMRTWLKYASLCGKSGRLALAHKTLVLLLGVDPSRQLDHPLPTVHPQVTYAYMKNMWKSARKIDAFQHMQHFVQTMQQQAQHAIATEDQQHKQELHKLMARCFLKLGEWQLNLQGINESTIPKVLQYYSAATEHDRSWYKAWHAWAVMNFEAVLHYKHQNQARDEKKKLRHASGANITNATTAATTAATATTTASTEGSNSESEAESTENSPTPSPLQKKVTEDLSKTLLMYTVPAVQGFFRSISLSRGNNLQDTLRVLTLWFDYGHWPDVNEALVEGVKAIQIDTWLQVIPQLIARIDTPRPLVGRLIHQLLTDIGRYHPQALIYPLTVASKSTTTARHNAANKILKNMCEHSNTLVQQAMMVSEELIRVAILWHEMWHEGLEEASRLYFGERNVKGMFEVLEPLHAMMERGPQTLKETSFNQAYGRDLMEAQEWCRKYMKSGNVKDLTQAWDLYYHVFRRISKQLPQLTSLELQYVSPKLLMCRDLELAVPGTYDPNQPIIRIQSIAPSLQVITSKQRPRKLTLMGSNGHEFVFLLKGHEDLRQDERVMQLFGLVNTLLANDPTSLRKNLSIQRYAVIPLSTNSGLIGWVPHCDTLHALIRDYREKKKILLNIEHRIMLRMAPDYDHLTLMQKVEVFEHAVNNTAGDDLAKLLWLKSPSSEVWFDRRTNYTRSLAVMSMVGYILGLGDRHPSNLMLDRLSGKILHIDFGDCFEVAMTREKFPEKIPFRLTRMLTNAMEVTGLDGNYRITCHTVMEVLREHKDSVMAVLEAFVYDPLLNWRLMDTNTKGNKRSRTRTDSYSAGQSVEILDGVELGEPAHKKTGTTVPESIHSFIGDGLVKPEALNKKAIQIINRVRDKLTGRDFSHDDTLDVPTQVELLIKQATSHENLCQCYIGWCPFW
Procedure: The enzymatic mTOR activity was measured using a LanthaScreen™ kinase activity assay (Invitrogen). The enzyme was purchased from Invitrogen (PV4754), as well as the GFP-labeled substrate (4EBP1-GFP; PV4759) and the Tb-anti-p4EBP1(pThr46) antibody (PV4757). The assay was performed in 50 mM HEPES buffer, pH 7.5, containing 1.5 mM MnCl2, 10 mM MgCl2, 1 mM EGTA, 2.5 mM DTT and 0.01% Tween-20. The concentration of the assay components were the following: 0.24 nM mTOR kinase, 400 nM 4EBP1-GFP, […] and serial dilutions of the compound (inhibitor) to be evaluated. After 1 h incubation at room temperature, 20 mM EDTA was used to stop the reaction and terbium-labeled antibody (4 nM) added to detect phosphorylated product. The antibody associates with the phosphorylated product resulting in an increased TR-FRET value. The TR-FRET value (a dimensionless number) was calculated as the ratio of the acceptor signal (GFP, emission at 520 nm) to the donor signal (terbium, emission at 495 nm). Values were plotted against the inhibitor concentration and fitted to a sigmoid dose-response curve using GraphPad software.

PIM-1 = biological target: T3, PIM-1 (Homo sapiens, UniProt P11309); experiment: PIM-1 biochemical assay (ADP Hunter)
T3 construct: histidine tag (C); made in house
T3 sequence (P11309 whole entry): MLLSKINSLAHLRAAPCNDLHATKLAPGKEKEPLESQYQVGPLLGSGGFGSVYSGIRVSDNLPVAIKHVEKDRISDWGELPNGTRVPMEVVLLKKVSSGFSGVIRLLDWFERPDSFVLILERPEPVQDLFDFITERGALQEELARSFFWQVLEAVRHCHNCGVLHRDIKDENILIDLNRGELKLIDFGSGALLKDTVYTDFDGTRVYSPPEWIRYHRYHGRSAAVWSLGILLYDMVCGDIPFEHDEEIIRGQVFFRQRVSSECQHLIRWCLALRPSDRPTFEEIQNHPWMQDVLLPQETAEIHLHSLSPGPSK
Source text: The biochemical assay to measure PIM-1 activity relies on the ADP Hunter assay kit (DiscoveRx Corp., Cat. #90-0077), that determines the amount of ADP as direct product of the kinase enzyme activity.
The enzyme has been expressed and purified in-house as a recombinant human protein with a C-terminal histidine tag. The protein is active and stable.
Assay conditions were as indicated by the kit manufacturers with the following adaptations for the kinase activity step: • Kinase assay buffer and assay volume stay as recommended (15 mM HEPES, pH 7.4, 20 mM NaCl, 1 mM EGTA, 0.02% Tween 20, 10 mM MgCl2 and 0.1 mg/ml bovine γ-globulins/75 μl assay volume) • Incubation time and temperature: 60 min at 30° C. • PIM-1 concentration: 50 pg/μl • ATP concentration: 100 μM • PIM-1 substrate peptide: PIMtide ([…]) (SEQIDNO. 1) • Peptide concentration: 60 μM • Positive control for kinase activity inhibition: 1-10 μM Staurosporine • DMSO concentration have to stay below 2% during the kinase reaction
Assays were performed in either 96 or 384-well plates. The final outcome of the coupled reactions provided by the kit is the release of the fluorescent product Resorufin and has been measured with a multilabel HTS counter VICTOR V (PerkinElmer) using an excitation filter at 544 nm and an emission filter at 580 nm.

[1] = Pharmacokinetic in BALB-c female mice, i.v. and oral; assay type: in vivo; conditions: mouse, plasma; for half-life: read-out: T½ last (plasmatic half life) (converted); for clearance: read-out: Cl (plasmatic clearance) (converted); for MRT: read-out: MRT (Mean residence time); for Vd: read-out: Vd (volume of distribution); for bioavailability: P.O dose 10.00 mg/Kg vs I.V 5.00 mg/Kg, read-out: F % (bioavailability); for Cmax: read-out: C max (maximum plasma concentration after oral administration)
Procedure: Experiments were done using BALB-c female mice, 10 weeks old. Compounds were dissolved in selected vehicles at a concentration calculated in order to administer the dose selected in 0.1 mL. Animals were administered by i.v and oral route (by gavage), and sacrificed at different time points (n=3 at each time point). Time points were 0.08, 0.25, 0.5, 1, 4 and 8 h for the i.v branch, and 0.08, 0.16, 0.25, 0.5, 1, 4, 8 and 24 h for oral branch. Blood was collected and processed for plasma which was analyzed and quantified by means of tandem mass spectrometry coupled with liquid chromatography. Pharmacokinetic parameters were estimated by fitting the experimental data to a compartmental model using Winnonlin software for pharmacokinetic analysis.

[2] = read-out: PI3K alpha activity, IC50 (semi-quantitative class)
[3] = read-out: PI3K alpha actual IC50 (in parentheses)
[4] = read-out: mTOR activity, IC50 (semi-quantitative class)
[5] = read-out: mTOR actual IC50 (in parentheses)
[6] = PIM1, read-out: PIM-1 activity, IC50 (semi-quantitative class)
[7] = read-out: PI3K alpha activity (semi-quantitative IC50)
[8] = read-out: mTOR activity (semi-quantitative IC50)
[9] = read-out: PIM-1 activity (semi-quantitative IC50)
[10] = PIM1, read-out: PIM-1 actual IC50 (in parentheses)

T1 sequence (P42336 whole entry): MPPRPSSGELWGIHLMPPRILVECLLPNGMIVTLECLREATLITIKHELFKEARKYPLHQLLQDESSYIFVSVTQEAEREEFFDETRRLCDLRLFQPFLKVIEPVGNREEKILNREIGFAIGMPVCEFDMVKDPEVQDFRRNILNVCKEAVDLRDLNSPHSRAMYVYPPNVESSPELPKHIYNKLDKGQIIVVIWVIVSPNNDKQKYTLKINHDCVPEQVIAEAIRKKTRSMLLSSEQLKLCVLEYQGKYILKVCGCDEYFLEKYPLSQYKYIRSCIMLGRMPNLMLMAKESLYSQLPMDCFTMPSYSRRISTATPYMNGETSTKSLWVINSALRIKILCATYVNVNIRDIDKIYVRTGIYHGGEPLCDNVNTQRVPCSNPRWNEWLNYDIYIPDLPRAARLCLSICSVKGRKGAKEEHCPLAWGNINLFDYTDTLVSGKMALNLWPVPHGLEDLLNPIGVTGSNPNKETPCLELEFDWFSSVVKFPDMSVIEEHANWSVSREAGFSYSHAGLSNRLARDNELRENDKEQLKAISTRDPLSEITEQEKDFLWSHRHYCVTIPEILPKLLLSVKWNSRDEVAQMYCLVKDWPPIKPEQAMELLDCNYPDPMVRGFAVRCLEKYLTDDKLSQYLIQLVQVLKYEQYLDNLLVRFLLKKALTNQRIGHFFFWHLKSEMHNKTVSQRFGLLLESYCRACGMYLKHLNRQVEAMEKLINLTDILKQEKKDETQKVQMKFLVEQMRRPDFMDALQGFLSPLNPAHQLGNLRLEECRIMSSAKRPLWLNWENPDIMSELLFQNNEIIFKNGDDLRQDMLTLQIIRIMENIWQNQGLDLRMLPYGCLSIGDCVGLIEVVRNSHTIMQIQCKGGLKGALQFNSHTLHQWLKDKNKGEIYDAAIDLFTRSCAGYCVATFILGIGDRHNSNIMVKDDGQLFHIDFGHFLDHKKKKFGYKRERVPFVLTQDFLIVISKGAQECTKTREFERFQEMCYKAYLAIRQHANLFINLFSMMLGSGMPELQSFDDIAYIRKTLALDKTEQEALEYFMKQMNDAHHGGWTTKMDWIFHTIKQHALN
T1 sequence (P27986 whole entry partner): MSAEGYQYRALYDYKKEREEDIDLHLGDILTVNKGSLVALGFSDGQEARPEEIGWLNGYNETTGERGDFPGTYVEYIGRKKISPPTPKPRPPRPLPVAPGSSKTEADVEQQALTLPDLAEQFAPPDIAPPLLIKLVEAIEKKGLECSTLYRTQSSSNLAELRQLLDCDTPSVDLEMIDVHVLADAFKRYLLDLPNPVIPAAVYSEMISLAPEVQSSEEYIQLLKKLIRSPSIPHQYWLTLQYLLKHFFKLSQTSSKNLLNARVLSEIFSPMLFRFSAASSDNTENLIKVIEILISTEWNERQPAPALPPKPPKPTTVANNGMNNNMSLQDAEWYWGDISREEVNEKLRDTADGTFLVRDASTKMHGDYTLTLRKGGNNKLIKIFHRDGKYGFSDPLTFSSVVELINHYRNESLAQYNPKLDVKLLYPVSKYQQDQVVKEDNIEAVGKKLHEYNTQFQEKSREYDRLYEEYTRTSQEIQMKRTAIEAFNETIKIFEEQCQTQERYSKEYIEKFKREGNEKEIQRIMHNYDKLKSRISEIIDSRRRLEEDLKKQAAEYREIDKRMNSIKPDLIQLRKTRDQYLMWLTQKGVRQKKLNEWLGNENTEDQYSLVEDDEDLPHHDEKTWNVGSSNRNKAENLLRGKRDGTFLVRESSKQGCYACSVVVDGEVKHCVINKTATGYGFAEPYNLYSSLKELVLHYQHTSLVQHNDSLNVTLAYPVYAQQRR

Compound	IC50 (PI3K (p110α/p85α); [2])	IC50 (PI3K (p110α/p85α); [3])	IC50 (mTOR; [4])	IC50 (mTOR; [5])	IC50 (PIM-1; [6])	further results
COc1ncc2cc1NS(=O)(=O)c1cccc(c1)C(=O)NCc1cccc(c1)-c1cnn3ccc-2nc13 [compound 16]	< 100 nM	0.9 nM	< 100 nM	4 nM	> 1000 nM	AUC(0-inf) ([1]; iv, I.V, dose 5.00 mg/Kg): 23600 ng·h/mL; half-life ([1]; iv, I.V, dose 5.00 mg/Kg): 2.23 h; clearance ([1]; iv, I.V, dose 5.00 mg/Kg): 4.5 mL/min/kg; MRT ([1]; iv, I.V, dose 5.00 mg/Kg): 3.33 h; Vd ([1]; iv, I.V, dose 5.00 mg/Kg): 0.99 L/kg; bioavailability ([1]; po): 123%; AUC(0-inf) ([1]; po, P.O, dose 10.00 mg/Kg): 29200 ng·h/mL; Cmax ([1]; po, P.O, dose 10.00 mg/Kg): 4820 ng/mL
COc1ncc2cc1NS(=O)(=O)c1cccc(c1)C(=O)NCCn1cc(cn1)-c1ncnc3ccc-2cc13 [compound 33]	< 100 nM	1.3 nM	< 100 nM	4.8 nM	> 1000 nM	AUC(0-inf) ([1]; iv, I.V, dose 5.00 mg/Kg): 9160 ng·h/mL; half-life ([1]; iv, I.V, dose 5.00 mg/Kg): 2.91 h; clearance ([1]; iv, I.V, dose 5.00 mg/Kg): 10 mL/min/kg; MRT ([1]; iv, I.V, dose 5.00 mg/Kg): 1.87 h; Vd ([1]; iv, I.V, dose 5.00 mg/Kg): 1.12 L/kg; bioavailability ([1]; po): 48.1%; AUC(0-inf) ([1]; po, P.O, dose 10.00 mg/Kg): 8810 ng·h/mL; Cmax ([1]; po, P.O, dose 10.00 mg/Kg): 1270 ng/mL
COc1ncc2cc1NS(=O)(=O)c1cccc(c1)C(=O)NCc1cccc(c1)-c1ncnc3ccc-2cc13 [compound 22]	< 100 nM	0.1 nM			> 1000 nM	AUC(0-inf) ([1]; iv, I.V, dose 5.00 mg/Kg): 66900 ng·h/mL; half-life ([1]; iv, I.V, dose 5.00 mg/Kg): 3.42 h; clearance ([1]; iv, I.V, dose 5.00 mg/Kg): 1.17 mL/min/kg; MRT ([1]; iv, I.V, dose 5.00 mg/Kg): 4.94 h; Vd ([1]; iv, I.V, dose 5.00 mg/Kg): 0.37 L/kg; bioavailability ([1]; po): 33.5%; AUC(0-inf) ([1]; po, P.O, dose 10.00 mg/Kg): 44800 ng·h/mL; Cmax ([1]; po, P.O, dose 10.00 mg/Kg): 15000 ng/mL
COc1ncc2cc1NS(=O)(=O)c1cccc(c1)C(=O)NCC1CCN(CC1)c1ncnc3cc-2sc13 [compound 38]	> 1000 nM		> 1000 nM		> 1000 nM	
COc1ncc2cc1NS(=O)(=O)c1cccc(c1)C(=O)NCC1=C(C)C=C(S1)c1ncnc3c1SC2=C3 [compound 88]						IC50 (PI3K (p110α/p85α); [7]): 100 to 1000 nM; IC50 (mTOR; [8]): > 1000 nM; IC50 (PIM-1; read-out: PIM-1 IC50 (in parentheses)): 69 nM; IC50 (PIM-1; [9]): < 100 nM
COc1ncc2cc1NS(=O)(=O)c1cccc(c1)C(=O)NCc1cc(ccn1)-c1ccnc3ccc-2cc13 [compound 15]	< 100 nM	20 nM	100 to 1000 nM		> 1000 nM	
COc1ncc2cc1NS(=O)(=O)c1cccc(c1)C(=O)NCc1ccncc1-c1ncnc3c1SC2=C3 [compound 89]						IC50 (PI3K (p110α/p85α); [7]): > 1000 nM; IC50 (mTOR; [8]): > 1000 nM; IC50 (PIM-1; [9]): > 1000 nM
COc1ncc2cc1NS(=O)(=O)c1cccc(c1)C(=O)NCC1=CC=C(S1)c1ncnc3c1SC2=C3 [compound 55]	100 to 1000 nM		> 1000 nM		< 100 nM	IC50 (PIM-1; [10]): 12 nM
COc1ncc2cc1NS(=O)(=O)c1cccc(c1)C(=O)NCC1CCN(CC1)c1ncnc3ccc-2cc13 [compound 32]	< 100 nM	2 nM	< 100 nM	5 nM	> 1000 nM	
COc1ncc2cc1NS(=O)(=O)c1cccc(c1)C(=O)NCc1cncc(c1)-c1ccnc3c1SC2=C3 [compound 62]	100 to 1000 nM		> 1000 nM		< 100 nM	IC50 (PIM-1; [10]): 31 nM
COc1ncc2cc1NS(=O)(=O)c1cccc(c1)C(=O)N(C)CC1CCN(CC1)c1ccnc3ccc-2cc13 [compound 24]	< 100 nM	3 nM	< 100 nM	4 nM	> 1000 nM	
O=C1NCc2cc(ccn2)-c2ncnc3c2SC(=C3)c2cncc(c2)NS(=O)(=O)c2cccc1c2 [compound 43]	< 100 nM	44 nM	> 1000 nM		< 100 nM	IC50 (PIM-1; [10]): 41 nM
COc1ncc2cc1NS(=O)(=O)c1cccc(c1)C(=O)NCCn1cc(cn1)-c1ncnc3c1SC2=C3 [compound 36]	100 to 1000 nM		> 1000 nM		100 to 1000 nM	
